Experimental findings from patent publication US8143290B2, “Chemical compounds 572” (AstraZeneca AB, priority 2006, dated 2012) are described below.

The assay concerns the target T1, recombinant human GR (Homo sapiens, UniProt P04150).
T1 construct: purchased Panvera/Invitrogen P2812 (kit P2893)
T1 sequence (P04150 1-777): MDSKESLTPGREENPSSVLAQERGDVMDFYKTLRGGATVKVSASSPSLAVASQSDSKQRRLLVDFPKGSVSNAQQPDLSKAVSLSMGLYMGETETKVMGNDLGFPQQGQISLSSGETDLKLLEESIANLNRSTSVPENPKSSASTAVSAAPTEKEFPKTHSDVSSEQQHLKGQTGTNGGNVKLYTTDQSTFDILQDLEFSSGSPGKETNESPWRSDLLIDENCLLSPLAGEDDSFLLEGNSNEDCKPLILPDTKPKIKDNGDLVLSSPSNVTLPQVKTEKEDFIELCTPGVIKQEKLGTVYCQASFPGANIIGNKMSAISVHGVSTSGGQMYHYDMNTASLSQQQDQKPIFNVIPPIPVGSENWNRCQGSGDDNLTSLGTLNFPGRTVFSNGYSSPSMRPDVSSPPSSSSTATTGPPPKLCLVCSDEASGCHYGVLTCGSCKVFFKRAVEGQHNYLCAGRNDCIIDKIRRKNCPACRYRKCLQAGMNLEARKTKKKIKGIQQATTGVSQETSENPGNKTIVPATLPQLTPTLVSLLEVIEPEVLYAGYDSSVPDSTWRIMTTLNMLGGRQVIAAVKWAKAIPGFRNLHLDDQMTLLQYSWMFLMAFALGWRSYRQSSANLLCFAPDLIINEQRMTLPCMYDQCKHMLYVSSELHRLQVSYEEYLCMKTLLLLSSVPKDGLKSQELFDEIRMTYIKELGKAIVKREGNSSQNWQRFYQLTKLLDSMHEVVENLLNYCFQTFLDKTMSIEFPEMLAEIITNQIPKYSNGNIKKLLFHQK
The assay is described as follows: Human Glucocorticoid Receptor (GR) Assay, fluorescence polarization. The assay is classed as binding. The settings on record: GS Red tracer, incubated 2 h at r.t., XLfit model 205, read-out: GRhuFL_FP_v2 Mean IC50. Summed up: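 Fluorescence polarization kit assay: recombinant GR and GS Red fluorescent ligand with Stabilizing Peptide and DTT in potassium phosphate/sodium molybdate/EDTA screening buffer. Plates incubated 2 h in the dark at r.t.; DMSO served as 0% and dexamethasone as 100% control.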
On the technique in general: In fluorescence polarisation assays a small probe gives low polarisation when free and higher when bound to something large.

Turning to `Cc1cc(C)c([C@@H](Oc2ccc3c(cnn3-c3ccc(F)cc3)c2)[C@H](C)NC(=O)C(F)(F)F)cc1C` [Example 162, 2,2,2-trifluoro-N-[(1R,2S)-1-[1-(4-fluorophenyl)indazol-5-yl]oxy-1-(2,4,5-trimethylphenyl)propan-2-yl]acetamide], the IC50 was 14 nM.

As usually defined, the IC50 is the point on the concentration scale where inhibition reaches its midpoint.
